According to patent US8017588B2, “Clarithromycin or salt thereof for use in the treatment or prevention of pulmonary disease induced by destruction of pulmonary alveoli” (Taisho Pharmaceutical Co., Ltd, priority 2005, dated 2011):

Columns and labels:
[1] = tested on: macrophages and neutrophiles in bronchoalveolar lavage fluids; assay: Cell counts of inflammatory cells in bronchoalveolar lavage fluids of model mice with tobacco smoke-induced pulmonary emphysema; type: in vivo, C57black/6 female mice; conditions: after six months' exposure, 25, 50 or 100 mg/kg orally twice daily
Method: The model mice with tobacco smoke-induced pulmonary emphysema mimicking human pulmonary emphysema were constructed according to the method as described in Hautamaki, R. D. et al., Science 1997, 277:2002-2004 or Shapiro, S. D. et al., Am. J. Pathol (2003) 163:2329-2335. Specifically, C57black/6 female mice of 12-weeks old were exposed to tobacco smoke at two cigarettes per day, 6 days per week for 6 months. Administration of clarithromycin was carried out orally at the rate of 25, 50 or 100 […] twice daily (morning and evening) during the tobacco smoke exposure period. The plasma AUC0-∞ of clarithromycin obtained when 50 mg/kg was singly administered to the mice was 2.677 μg·hr/ml while the plasma AUC0-∞ of clarithromycin obtained when 200 mg of clarithromycin was singly administered to a normal human subject was 8.98 μg·hr/ml. The former concentration was substantially lower than the latter one and was an adequate concentration to be used clinically. The cell counts of inflammatory cells (macrophages and neutrophiles) in the bronchoalveolar lavage fluids after six months' exposure were measured to provide an index of the inflammatory condition in the model mice with tobacco smoke-induced pulmonary emphysema. […]

[2] = Plasma AUC after single administration to a normal human subject; type: in vivo; conditions: 200 mg singly administered, read-out: plasma AUC0-∞
Method: (§1) Administration of clarithromycin was carried out orally at the rate of 25, 50 or 100 […] twice daily (morning and evening) during the tobacco smoke exposure period. The plasma AUC0-∞ of clarithromycin obtained when 50 mg/kg was singly administered to the mice was 2.677 μg·hr/ml while the plasma AUC0-∞ of clarithromycin obtained when 200 mg of clarithromycin was singly administered to a normal human subject was 8.98 μg·hr/ml. The former concentration was substantially lower than the latter one and was an adequate concentration to be used clinically.

[3] = Plasma AUC after single administration to mice; type: in vivo; conditions: C57black/6, mouse, oral, 50 mg/kg singly administered, read-out: plasma AUC0-∞
Method: as §1

[4] = tested on: model mice with tobacco smoke-induced pulmonary emphysema; assay: Pulmonary compliance in model mice with tobacco smoke-induced pulmonary emphysema; type: in vivo, C57black/6 female mice; conditions: after six months' exposure; FIG. 2
Method: The model mice with tobacco smoke-induced pulmonary emphysema mimicking human pulmonary emphysema were constructed according to the method as described in Hautamaki, R. D. et al., Science 1997, 277:2002-2004 or Shapiro, S. D. et al., Am. J. Pathol (2003) 163:2329-2335. Specifically, C57black/6 female mice of 12-weeks old were exposed to tobacco smoke at two cigarettes per day, 6 days per week for 6 months. Administration of clarithromycin was carried out orally at the rate of 25, 50 or 100 […] twice daily (morning and evening) during the tobacco smoke exposure period. The plasma AUC0-∞ of clarithromycin obtained when 50 mg/kg was singly administered to the mice was 2.677 μg·hr/ml while the plasma AUC0-∞ of clarithromycin obtained when 200 mg of clarithromycin was singly administered to a normal human subject was 8.98 μg·hr/ml. The former concentration was substantially lower than the latter one and was an adequate concentration to be used clinically. It has been reported that as pulmonary emphysema progresses, pulmonary functions deteriorate. It has also been known that the pulmonary compliance, which is an index of pulmonary functions, increases in model mice with tobacco smoke-induced pulmonary emphysema. Thus, the pulmonary compliance was measured in the model mice with tobacco smoke-induced pulmonary emphysema after six months' exposure.

AUC(0-inf) [2]: 8980 ng·h/mL
AUC(0-inf) [3]: 2680 ng·h/mL
Structure (SMILES): CC[C@H]1OC(=O)[C@H](C)[C@@H](O[C@H]2C[C@@](C)(OC)[C@@H](O)[C@H](C)O2)[C@H](C)[C@@H](O[C@@H]2O[C@H](C)C[C@H](N(C)C)[C@H]2O)[C@](C)(OC)C[C@@H](C)C(=O)[C@H](C)[C@@H](O)[C@]1(C)O [clarithromycin]
cell count of macrophages in bronchoalveolar lavage fluid ([1]; FIG. 1A): reduced the cell counts of macrophages and neutrophiles in a dose-dependant manner
cell count of neutrophiles in bronchoalveolar lavage fluid ([1]; FIG. 1B): reduced the cell counts of macrophages and neutrophiles in a dose-dependant manner
pulmonary compliance [4]: the pulmonary compliance recovered
